The values that follow come from ChEMBL document CHEMBL1201862, “PubChem BioAssay data set” (2004).

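Grown in 96-well plates, cells were treated for 48 hours with each compound at five concentrations. Insufficient inhibition: endpoint recorded as highest concentration tested. GI50: concentration for 50% inhibition of growth.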 Calls of active or inactive are those of the source. Cut-off read from the data, not from the text of the source: active = GI50 up to about 1.1 µM and inactive = higher.

Among the test systems are 786-0; CCRF-CEM; HCT-116; HCT-15; HOP-92; Hs-578T; IGROV-1; K562; KM12; LOX IMVI; MCF7; MDA-MB-231; MDA-MB-435; MOLT-4; OVCAR-5; OVCAR-8; SK-MEL-2; SK-MEL-5; SW-620; UO-31.
Holding throughout (test): DTP human tumour cell line panel, 48 h

A word on the GI50: it is the concentration at which growth is held to half of that of the control. In the case of `O=S(=O)(/N=C(\NO)Nc1ccc(Cl)cc1)C1CC=C(c2ccon2)S1` (stereo not given), the GI50 in the assay on 786-0 was 2.88 µM (inactive); with CCRF-CEM it was 12.2 µM (inactive); in the assay with HCT-116, 15.6 µM (inactive); in the assay on HCT-15, 15.5 µM; with HOP-92, 10.3 µM (inactive); in the assay on Hs-578T, 14.7 µM (inactive). Further, the GI50 in the assay on IGROV-1 is 11.6 µM (inactive); with K562, 7.1 µM (inactive); in the assay with KM12 it was 46.5 µM (inactive); in the assay on LOX IMVI it was 21 µM (inactive); with MCF7 it was 16.1 µM (inactive); in the assay on MDA-MB-231, 18.4 µM (inactive). Besides, the GI50 is 8.91 µM (inactive) in the assay with MDA-MB-435; 3.34 µM (inactive) in the assay with MOLT-4; > 66.2 µM (inactive) in the assay on OVCAR-5; 8.77 µM (inactive) in the assay on OVCAR-8; 13.3 µM (inactive) with SK-MEL-2; 20.4 µM (inactive) in the assay on SK-MEL-5. In addition, the GI50 in the assay on SW-620 is 5.78 µM (inactive); in the assay with UO-31 it was 9.55 µM (inactive).
On to `C[C@]12C=CC(=O)C=C1[C@@H](F)C[C@H]1[C@@H]3CC[C@](O)(C(=O)CO)[C@@]3(C)C[C@H](O)[C@@]12F`, for which the GI50 is > 100 µM (inactive) in the assay on 786-0; 0.543 µM (active) in the assay on CCRF-CEM; > 100 µM (inactive) in the assay on HCT-116; greater than 100 µM in the assay on HCT-15; > 100 µM (inactive) with HOP-92; > 100 µM (inactive) in the assay on Hs-578T. Besides, the GI50 with IGROV-1, in the assay with K562, with KM12, in the assay with LOX IMVI, in the assay on MCF7 and in the assay with MDA-MB-231 was > 100 µM (inactive) in each case. The GI50 in the assay with MDA-MB-435 is > 100 µM (inactive); in the assay with MOLT-4, > 100 µM (inactive); in the assay on OVCAR-5, > 59.6 µM (inactive); in the assay on OVCAR-8 it was > 100 µM (inactive); in the assay with SK-MEL-2 it was > 100 µM (inactive); in the assay on SK-MEL-5 it was > 100 µM (inactive). In addition, the GI50 with SW-620 and in the assay with UO-31 was > 100 µM (inactive) in each case.
For `Cc1cc(C)c2c(n1)S(=O)(=O)N(CCCN1CCN(c3cccc(Cl)c3)CC1)C(C(=O)c1ccc(Br)cc1)=C2O`, the GI50 in the assay on 786-0 is 12.1 µM (inactive); in the assay on CCRF-CEM, 19.9 µM (inactive); in the assay with HCT-116 it was 19.1 µM (inactive); in the assay with HCT-15, 16.7 µM; in the assay with HOP-92, 20.7 µM (inactive); in the assay on Hs-578T, 29.6 µM (inactive). The GI50 was 27.2 µM (inactive) with IGROV-1; 27.8 µM (inactive) in the assay on K562; 24.7 µM (inactive) with KM12; 6.81 µM (inactive) in the assay with LOX IMVI; 25.7 µM (inactive) with MCF7; 37.7 µM (inactive) in the assay with MDA-MB-231. The GI50 in the assay with MDA-MB-435 is 18.2 µM (inactive); in the assay on MOLT-4, 10.6 µM (inactive); with OVCAR-5, 36.2 µM (inactive); in the assay with OVCAR-8, 23.8 µM (inactive); with SK-MEL-2 it was 20.5 µM (inactive); in the assay with SK-MEL-5, 15.4 µM (inactive). Also, the GI50 was 34.1 µM (inactive) with SW-620 and 7.1 µM (inactive) in the assay with UO-31.
Take `COc1cc2c(c(OC)c1)C(=O)O[C@H](C)CCCC/C=C/C2`: the GI50 in the assay on 786-0 was 10.9 µM (inactive); in the assay on CCRF-CEM it was 2.26 µM (inactive); in the assay on HCT-116, 8.61 µM (inactive); in the assay on HCT-15 it was 10.2 µM; in the assay on HOP-92, 9.77 µM (inactive); in the assay with Hs-578T, 20.9 µM (inactive). For the same molecule, the GI50 was 9.06 µM (inactive) with IGROV-1; 6.24 µM (inactive) in the assay with K562; 9.35 µM (inactive) in the assay on KM12; 4.73 µM (inactive) in the assay with LOX IMVI; 11.6 µM (inactive) with MCF7; 10.9 µM (inactive) in the assay on MDA-MB-231. For the same molecule, the GI50 was 4.73 µM (inactive) in the assay on MDA-MB-435; 7.31 µM (inactive) in the assay with MOLT-4; 15.1 µM (inactive) in the assay with OVCAR-5; 33.3 µM (inactive) with OVCAR-8; 12.1 µM (inactive) with SK-MEL-2; 5.71 µM (inactive) in the assay on SK-MEL-5. Moreover, the GI50 in the assay on SW-620 was 7.94 µM (inactive); in the assay on UO-31, 13.5 µM (inactive).
Take `COc1cc(C2S/C(=C/c3ccccc3)C(=O)N2c2ccc([N+](=O)[O-])cc2)cc(OC)c1OC` (stereo not given): the GI50 was > 100 µM (inactive) in the assay on 786-0; 32.6 µM (inactive) in the assay with CCRF-CEM; > 64.9 µM (inactive) in the assay on HCT-116; 26.4 µM in the assay with HCT-15; > 100 µM (inactive) in the assay with HOP-92; > 100 µM (inactive) in the assay with Hs-578T. Besides, the GI50 in the assay with IGROV-1 is > 20.6 µM (inactive); in the assay with K562 it was 3.68 µM (inactive); in the assay on KM12 it was 28.6 µM (inactive); in the assay with LOX IMVI, 19 µM (inactive); in the assay with MCF7 it was 58.3 µM (inactive); in the assay with MDA-MB-231 it was > 100 µM (inactive). In addition, the GI50 in the assay with MDA-MB-435 was 18 µM (inactive); in the assay on MOLT-4, 47.3 µM (inactive); in the assay on OVCAR-5 it was 15.5 µM (inactive); in the assay on OVCAR-8, > 100 µM (inactive); with SK-MEL-2, > 91.4 µM (inactive); in the assay with SK-MEL-5 it was 25.6 µM (inactive). Also, the GI50 was > 100 µM (inactive) in the assay with SW-620 and 47 µM (inactive) in the assay on UO-31.
For the molecule `CCCCc1ccc(Nc2nc3c(ncn3C3CC(O)C(CN=[N+]=[N-])O3)c(=O)[nH]2)cc1` (stereo not given), the GI50 in the assay on 786-0 was > 100 µM (inactive); with CCRF-CEM, > 100 µM (inactive); in the assay with HCT-116 it was > 100 µM (inactive); in the assay with HCT-15, greater than 100 µM; in the assay with HOP-92 it was > 100 µM (inactive); in the assay on Hs-578T, > 100 µM (inactive). Further, the GI50 in the assay on IGROV-1, with K562, in the assay with KM12, in the assay on LOX IMVI, with MCF7 and in the assay on MDA-MB-231 was > 100 µM (inactive) throughout. For the same molecule, the GI50 in the assay on MDA-MB-435, in the assay on MOLT-4, in the assay on OVCAR-5, in the assay with OVCAR-8, in the assay with SK-MEL-2 and in the assay with SK-MEL-5 was > 100 µM (inactive) throughout. For the same molecule, the GI50 in the assay on SW-620 and in the assay with UO-31 was > 100 µM (inactive) each time.
As to `COc1cc2cc(C(=O)N3CC(CCl)c4c3cc(N)c3ccccc43)[nH]c2cc1OCCN(C)C` (stereo not given), the GI50 is < 0.005 µM (active) in the assay with 786-0; < 0.005 µM (active) in the assay with CCRF-CEM; < 0.005 µM (active) in the assay on HCT-116; 0.00553 µM in the assay with HCT-15; < 0.005 µM (active) with HOP-92; 0.027 µM (active) with Hs-578T. Besides, the GI50 with IGROV-1, with K562, in the assay on KM12, in the assay on LOX IMVI, in the assay with MCF7 and with MDA-MB-231 was < 0.005 µM (active) each time. For the same molecule, the GI50 in the assay on MDA-MB-435 is < 0.005 µM (active); with MOLT-4, 0.0561 µM (active); in the assay with OVCAR-5, 0.00713 µM (active); in the assay on OVCAR-8, < 0.005 µM (active); in the assay on SK-MEL-2, < 0.005 µM (active); in the assay on SK-MEL-5, < 0.005 µM (active). The GI50 in the assay with SW-620 and in the assay on UO-31 was < 0.005 µM (active) in each case.
On to `Nc1ncnc2c1ccn2CC=C(CO)CO`, for which the GI50 in the assay on 786-0 was > 100 µM (inactive); in the assay on CCRF-CEM, > 100 µM (inactive); in the assay with HCT-116 it was > 100 µM (inactive); in the assay with HCT-15, greater than 100 µM; in the assay with HOP-92, > 100 µM (inactive); in the assay on Hs-578T, > 100 µM (inactive). Moreover, the GI50 with IGROV-1, in the assay with K562, in the assay with KM12, with LOX IMVI, in the assay on MCF7 and in the assay with MDA-MB-231 was > 100 µM (inactive) in each case. Moreover, the GI50 in the assay on MDA-MB-435, in the assay with MOLT-4, in the assay on OVCAR-5, in the assay with OVCAR-8, in the assay with SK-MEL-2 and with SK-MEL-5 was > 100 µM (inactive) in each case. Moreover, the GI50 in the assay with SW-620 and with UO-31 was > 100 µM (inactive) throughout.
`COC1=C[C@]2(CCC(=O)O2)[C@@H]2Cc3ccccc3[C@H](O)[C@@H]2C1=O`: the GI50 with 786-0 was 70.5 µM (inactive); with CCRF-CEM it was 15.1 µM (inactive); in the assay on HCT-116, 30.5 µM (inactive); in the assay on HCT-15 it was 41.1 µM; in the assay on HOP-92, 78.3 µM (inactive); in the assay on Hs-578T, > 100 µM (inactive). Also, the GI50 was 82.6 µM (inactive) with IGROV-1; 38.4 µM (inactive) in the assay on K562; > 100 µM (inactive) in the assay with KM12; 28.7 µM (inactive) with LOX IMVI; 44 µM (inactive) in the assay on MCF7; 34.6 µM (inactive) in the assay with MDA-MB-231. In addition, the GI50 in the assay on MDA-MB-435 was 16.9 µM (inactive); in the assay with MOLT-4, 17.9 µM (inactive); in the assay with OVCAR-5, > 100 µM (inactive); in the assay with OVCAR-8, 38 µM (inactive); in the assay on SK-MEL-2, 28.6 µM (inactive); in the assay with SK-MEL-5 it was 17.5 µM (inactive). The GI50 in the assay on SW-620 is 28.4 µM (inactive); in the assay on UO-31, 39.8 µM (inactive).
For the molecule `C=C(C)C(CC=C(C)C)Cc1c(O)cc(OC)c2c1OC(c1ccc(O)cc1O)C(O)C2=O` (stereo not given), the GI50 with 786-0 was 16.6 µM (inactive); in the assay on CCRF-CEM, 50.8 µM (inactive); in the assay on HCT-116, 17.3 µM (inactive); with HCT-15, 17 µM; in the assay with HOP-92, 14.6 µM (inactive); in the assay with Hs-578T it was 17.2 µM (inactive). The GI50 in the assay with IGROV-1 was 14.6 µM (inactive); in the assay with K562 it was > 100 µM (inactive); with KM12, 12 µM (inactive); in the assay with LOX IMVI, 20 µM (inactive); in the assay on MCF7 it was 13.2 µM (inactive); in the assay with MDA-MB-231, 18.6 µM (inactive). The GI50 with MDA-MB-435 is 16.9 µM (inactive); in the assay on MOLT-4, > 100 µM (inactive); in the assay on OVCAR-5, 17.7 µM (inactive); in the assay with OVCAR-8, 17 µM (inactive); with SK-MEL-2, 19.5 µM (inactive); in the assay on SK-MEL-5, 18.5 µM (inactive). In addition, the GI50 was 16.6 µM (inactive) with SW-620 and 15.9 µM (inactive) in the assay on UO-31.
